Measurements published in US11065226B2, “Combination comprising EP4 antagonist and immune checkpoint inhibitor” (ONO PHARMACEUTICAL CO., LTD., priority 2016, dated 2021).
One block for each molecule: values may come before it.

Tests used:
rat EP4 receptor = biological target: T1, rat EP4 receptor (Rattus norvegicus, UniProt P43114); experiment: EP4 antagonistic activity measurement using prostanoid receptor subtype-expressing cells (cAMP, PGE2 10 nM); assay type: cell-based; conditions: CHO cells expressing rat EP4 receptor; inhibition of cAMP production by PGE2 10 nM; 30 minutes at room temperature
T1 construct: expressed in transfected cells; host or cells: CHO cells
T1 sequence (P43114 whole entry): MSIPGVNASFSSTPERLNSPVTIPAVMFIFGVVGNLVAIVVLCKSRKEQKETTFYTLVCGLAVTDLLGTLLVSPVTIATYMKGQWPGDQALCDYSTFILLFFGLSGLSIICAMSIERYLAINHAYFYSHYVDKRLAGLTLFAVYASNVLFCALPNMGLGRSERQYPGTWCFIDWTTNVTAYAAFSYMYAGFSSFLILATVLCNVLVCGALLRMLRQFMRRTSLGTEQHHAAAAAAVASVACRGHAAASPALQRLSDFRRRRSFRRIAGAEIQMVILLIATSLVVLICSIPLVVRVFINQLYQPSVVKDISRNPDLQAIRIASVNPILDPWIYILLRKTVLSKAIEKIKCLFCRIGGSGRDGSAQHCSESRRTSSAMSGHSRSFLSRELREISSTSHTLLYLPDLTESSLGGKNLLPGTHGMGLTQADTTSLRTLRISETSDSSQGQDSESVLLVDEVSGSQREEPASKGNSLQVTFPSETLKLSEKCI
Method: CHO cells expressing rat EP4 receptor subtypes were prepared according to the methods of Nishigaki et al. (Non-Patent Document 4) and used for experiment. Cultured subconfluent cells were detached and suspended in an assay medium (MEM containing 1 mmol/L IBMX, 1% HSA) in a concentration of 1×10^6 cells/mL. To start the reaction, PGE2 was added to the cell suspension (25 μL) in a final concentration of 10 nmol/L, either alone or as a 25-μL PGE2 solution containing a test compound. After 30 minutes of reaction at room temperature, the amount of cAMP in the cells was quantified according to the method in the descriptions of the cAMP assay kit (CISBIO).
The antagonistic effect (IC50 value) of the test compound was calculated as a value that represents an inhibition rate against a reaction with PGE2 alone at 10 nM, a concentration that produces a submaximal cAMP producing effect.

[1] = system: mouse colorectal cancer cell line MC38; experiment: Combination therapy with Example 2-2 and anti-mouse PD-1 antibody in allograft model of MC38; assay type: in vivo; conditions: female C57BL/6 mice, Example 2-2 3 mg/kg orally twice a day day 8 to 24, anti-mouse PD-1 antibody i.p. 20 mg/kg day 8, 10 mg/kg day 14 and 20
Method: (§1) The effect of the combination therapy with the compound of Example 2-2 and an anti-mouse PD-1 antibody was evaluated in an allograft model of a mouse colorectal cancer cell line, MC38 (Cancer Res. (1975), 35(9), p 2434-9). The MC38 cells were cultured in a DMEM medium containing 10 vol % FBS, 100 units/mL penicillin, and 100 μg/mL streptomycin in a CO2 incubator. On the day of transplantation, the culture supernatant was removed, and then the MC38 cells were washed with PBS and collected. The collected MC38 cells were suspended in PBS and used as transplant cells. Under anesthesia, 1,000,000 transplant cells were subcutaneously transplanted into the right lateral abdominal regions of female C57BL/6 mice. On day 8 after the transplantation, the mice were divided into four groups of a vehicle group, an Example 2-2 compound-single therapy group, an anti-mouse PD-1 antibody-single therapy group, and a combination therapy group (the compound of Example 2-2 and the anti-mouse PD-1 antibody), each containing 10 individuals. […] The tumor volumes (mm^3) were calculated by the following equation from the tumor lengths along the minor axis and the major axis which were measured using a digital caliper. […]

[2] = system: mouse colorectal cancer cell line CT26; experiment: Combination therapy with Example 2-13 and anti-mouse PD-1 antibody in allograft model of CT26; assay type: in vivo; conditions: female BALB/c mice, Example 2-13 5 mg/kg orally twice a day day 7 to 21, anti-mouse PD-1 antibody i.p. 3 mg/kg day 7, 10, 14, 17
Method: (§2) The effect of the combination therapy with the compound of Example 2-13 and an anti-mouse PD-1 antibody was evaluated in an allograft model of a mouse colorectal cancer cell line, CT26 (Cancer Res. (2013), 73(12), p3591-603). The CT26 cells were cultured using a RPMI medium containing 10 vol % FBS, 2 mmol/L Glutamax, 100 units/mL penicillin, and 100 μg/mL streptomycin in a CO2 incubator. On the day of transplantation, the culture supernatant was removed, and then the CT26 cells were washed with PBS and collected. The collected CT26 cells were suspended in PBS and used as transplant cells. Under anesthesia, 1,000,000 transplant cells were subcutaneously transplanted into the right lateral abdominal regions of female BALB/c mice. On day 7 after the transplantation, the mice were divided into four groups of a vehicle group, an Example 2-13 compound-single therapy group, an anti-mouse PD-1 antibody-single therapy group, and a combination therapy group (the compound of Example 2-13 and the anti-mouse PD-1 antibody), each containing 15 to 18 individuals. […] The tumor volumes (mm^3) were calculated by the following equation from the tumor lengths along the minor axis and the major axis and the tumor height which were measured using a digital caliper. […]

[3] = system: mouse fibrosarcoma cell line SalN; experiment: Combination therapy with Example 2-13 and anti-mouse PD-1 antibody in allograft model of SalN; assay type: in vivo; conditions: female A/J mice, Example 2-13 5 mg/kg orally twice a day day 7 to 21, anti-mouse PD-1 antibody i.p. 3 mg/kg day 7, 10, 14, 17
Method: The effect of the combination therapy with the compound of Example 2-13 and an anti-mouse PD-1 antibody was evaluated in an allograft model of a mouse fibrosarcoma cell line, SalN (Cancer Res. (2012), 72(4), p 917-27). The SalN cells were cultured using a DMEM medium containing 10 vol % FBS, 2 mmol/L Glutamax, 100 units/mL penicillin, and 100 μg/mL streptomycin in a CO2 incubator. On the day of transplantation, the culture supernatant was removed, and then the SalN cells were washed with PBS and collected. The collected SalN cells were suspended in PBS and used as transplant cells. Under anesthesia, 2,000,000 transplant cells were subcutaneously transplanted into the right lateral abdominal regions of female A/J mice. On day 7 after the transplantation, the mice were divided into four groups of a vehicle group, an Example 2-13 compound-single therapy group, an anti-mouse PD-1 antibody-single therapy group, and a combination therapy group (the compound of Example 2-13 and the anti-mouse PD-1 antibody), each containing 15 individuals. […] The tumor volumes (mm^3) were calculated by the following equation from the tumor lengths along the minor axis and the major axis and the tumor height which were measured using a digital caliper. […]

[4] = system: mouse colorectal cancer cell line MC38; experiment: Combination therapy with Example 2-13 and anti-mouse PD-1 antibody in allograft model of MC38; assay type: in vivo; conditions: female C57BL/6 mice
Method: as §1, with “Example 2-13” for “Example 2-2”, “and 100}μg/mL” for “and 100 μg/mL”, “anesthesia, 200,000” for “anesthesia, 1,000,000”, “day 7” for “day 8”

[5] = system: mouse colorectal cancer cell line MC38; experiment: Combination therapy with Example 2-13 and anti-mouse CTLA-4 antibody in allograft model of MC38; assay type: in vivo; conditions: female C57BL/6 mice, Example 2-13 5 mg/kg orally twice a day day 7 to 28, anti-mouse CTLA-4 antibody i.p. 10 mg/kg day 7, 10, 14, 17
Method: as §2, with “CTLA-4” for “PD-1”, “MC38.” for “CT26 (Cancer Res. (2013), 73(12), p3591-603).”, “MC38” for “CT26”, “DMEM” for “RPMI”, “C57BL/6” for “BALB/c”, “15” for “15 to 18”

- IC50 (rat EP4 receptor): 1.3 nM
SMILES: Cn1cc(NC(=O)c2ccc3c(c2)[C@]2(CCO3)C[C@H]2C(=O)Nc2cc(C#N)ccc2CCCC(=O)O)cn1 [Example 2-5]

SMILES: COCCNC(=O)c1ccc2c(c1)[C@]1(CCO2)C[C@H]1C(=O)Nc1cc(C#N)ccc1CCCC(=O)O [Example 2-2]
- tumor growth (tumor volume, FIG. 2) [1]: inhibited the tumor growth alone

SMILES: CC(C)NC(=O)c1ccc2c(c1)[C@]1(CCO2)C[C@H]1C(=O)Nc1cc(C#N)ccc1CCCC(=O)O [Example 2-13, 4-[4-cyano-2-({[(2′R,4S)-6-(isopropylcarbamoyl)-2,3-dihydrospiro[chromene-4,1′-cyclopropan]-2′-yl]carbonyl}amino)phenyl]butanoic acid]
- tumor growth (tumor volume, FIG. 5) [2]: inhibited the tumor growth alone
- tumor growth (tumor volume, FIG. 4) [3]: inhibited the tumor growth alone
- Cases of Disappearance of Tumor/Cases ([4]; Example 2-13 3 mg/kg orally twice a day to day 28, anti-mouse PD-1 antibody i.p. 20 mg/kg day 7, 10 mg/kg day 13 and 19): 0/10
- tumor growth (tumor volume, FIG. 1) ([4]; Example 2-13 3 mg/kg orally, anti-mouse PD-1 antibody i.p. 20 mg/kg then 10 mg/kg): inhibited the tumor growth alone
- tumor growth (tumor volume, FIG. 3) [5]: inhibited the tumor growth alone
